Tests used:
[1] = cited from earlier work
[2] = Stability of bisacodyl in poloxamer melt; type: physicochemical; conditions: hot melt of bisacodyl and poloxamer
Text: Such a product will have advantages with regard to dosage form and other properties. […] Furthermore production scale enteric coating of capsules containing a low melting point, waxy, solid is very difficult due to melting and leakage or softening and deformation of the waxy, low melting point poloxamer.

- stability of bisacodyl in poloxamer [2]: unstable in poloxamer
SMILES: CC(=O)Oc1ccc(C(c2ccc(OC(C)=O)cc2)c2ccccn2)cc1 [Bisacodyl]
- time to action in the large intestine ([1]; following oral administration): 6 to 12 h
- onset of action ([1]; suppositories): 20 to 60 min

Source: patent publication US7704948B2, “Pharmaceutical composition” (Euro-Celtique S.A., priority 2001, dated 2010)
